Data from paper PMC4022547 (Molecular Brain, 2014).

What was measured:
[1] = target: hα6(A112V) + WT hβ2 + hβ3^V9’S nAChR (Homo sapiens, UniProt P17787+Q15825, A112V); conditions: 100 μM nicotine; 3 days after cRNA injection
Method: (§1) We planned to introduce identical amounts of cRNA, presumably producing equal amounts of each subunit protein, into oocytes largely due to lack of information about the levels of mRNA for each subunits that compose α6*-nAChRs in neurons or other cells. Concentrations of cRNAs for each nAChR α and β subunits (WT, mutant or variant) were adjusted to 500 ng μL^−1. We provisionally assumed that hα6 or its variants in association with hβ2 or hβ4 subunits would form complexes having 2:3 and/or 3:2 ratios of the indicated subunits and that oocytes also injected with WT or mutant form of β3 subunits (i.e., β3^V9’S) would express nAChR with 2:2:1 ratios of α:β:(β3 or β3^V9’S) subunits. For expression of binary nAChRs (i.e., two subunit containing nAChRs; α + β but not β3) cRNA mixtures were prepared by mixing 1 μL of cRNA for each subunit and an additional μL of RNAse free water (i.e., total volume 3 μL). Similarly for expression of ternary nAChRs [i.e., three subunit containing nAChRs; (α + β) + (β3 or β3^V9’S)] cRNA mixtures were prepared by mixing 1 μL of cRNA for each subunit. Several preparations of each mixture were prepared and stored at −80°C until further use. Injection of 138 nL of cRNA, out of 3 μL cRNA mixtures, into each oocyte would deliver ~23 ng of cRNA for each subunit whether binary or ternary nAChRs are expressed.
(§2) Two to 5 days after injection, oocytes were placed in a small-volume chamber and continuously perfused with OR2. The chamber was grounded through an agarose bridge. The oocytes were voltage-clamped at −70 mV (unless otherwise noted) to measure agonist or antagonist induced currents using Axoclamp 900A and pClamp 10.2 software (Molecular Devices, Sunnyvale, CA). The current signal was low-pass filtered at 10 Hz with the built-in low-pass Bessel filter in the Axoclamp 900A and digitized at 20 Hz with Axon Digidata1440A and pClamp10. […] Drugs (agonists and antagonists) were prepared daily in OR2. Drug was applied using a Valvelink 8.2 perfusion system (Automate scientific, Berkeley, CA). […] Then for the purpose of comparison electrophysiological recordings were performed in a given day in a given batch of oocytes following the same order of injections. […] All hβ4*-nAChR recordings were done in similar conditions to facilitate comparisons between hα6hβ4- and hα6hβ4hβ3-nAChRs. All electrophysiological measurements were conducted or checked in at least two batches of oocytes.
(§3) Raw data was collected and processed in part using pClamp 10.2 (Molecular Devices, Sunnyvale, CA), Origin 7.5 (OriginLab Corporation, Northampton, MA) and a spreadsheet (Excel; Microsoft, Bellevue, WA). Peak current amplitudes (Imax) are reported as mean ± SEM (for results from at least three oocytes, i.e., n = 3).

[2] = target: hα6(A184D) + WT hβ2 + hβ3^V9’S nAChR (Homo sapiens, UniProt P17787+Q15825, A184D); conditions: 100 μM nicotine; 3 days after cRNA injection
Method: as §1, §2, §3

[3] = target: hα6(S233C) + codon optimized hβ2 + hβ3^V9’S nAChR (Homo sapiens, UniProt P17787+Q15825, S233C); conditions: 100 μM nicotine; oocytes clamped at −70 mV
Method: as §1, §2, §3

[4] = target: hα6(R96H) + codon optimized hβ2 + hβ3^V9’S nAChR (Homo sapiens, UniProt P17787+Q15825, R96H); conditions: 100 μM nicotine; oocytes clamped at −70 mV
Method: as §1, §2, §3

[5] = target: hα6(D57N) + hβ4 + hβ3 nAChR (Homo sapiens, UniProt P30926+Q15825, D57N); conditions: nicotine
Method: as §1, §2, §3

hα6(S43P) + hβ4 nAChR = hα6(S43P) + hβ4 nAChR (Homo sapiens, UniProt P30926+Q15825, S43P); conditions: 100 μM nicotine; oocytes clamped at −70 mV
Method: as §1, §2, §3

[6] = target: hα6(S43P) + hβ4 + hβ3 nAChR (Homo sapiens, UniProt P30926+Q15825, S43P); conditions: 100 μM nicotine; oocytes clamped at −70 mV
Method: as §1, §2, §3

[7] = tested on: hα6(R96H) + WT hβ2 + hβ3^V9’S nAChR; conditions: 100 μM nicotine; higher, p < 0.05
Method: as §1, §2, §3

[8] = target: hα6(D57N) + WT hβ2 + hβ3^V9’S nAChR (Homo sapiens, UniProt P17787+Q15825, D57N); conditions: nicotine
Method: as §1, §2, §3

[9] = target: hα6(S156R) + WT hβ2 + hβ3^V9’S nAChR (Homo sapiens, UniProt P17787+Q15825, S156R); conditions: nicotine
Method: as §1, §2, §3

hα6(N46K) + hβ4 nAChR = hα6(N46K) + hβ4 nAChR (Homo sapiens, UniProt P30926+Q15825, N46K); conditions: 100 μM nicotine; oocytes clamped at −70 mV
Method: as §1, §2, §3

[10] = target: hα6(D199Y) + codon optimized hβ2 + hβ3^V9’S nAChR (Homo sapiens, UniProt P17787+Q15825, D199Y); conditions: 100 μM nicotine; oocytes clamped at −70 mV
Method: as §1, §2, §3

[11] = target: hα6(A112V) + codon optimized hβ2 + hβ3^V9’S nAChR (Homo sapiens, UniProt P17787+Q15825, A112V); conditions: 100 μM nicotine; oocytes clamped at −70 mV
Method: as §1, §2, §3

[12] = target: hα6(I226T) + codon optimized hβ2 + hβ3^V9’S nAChR (Homo sapiens, UniProt P17787+Q15825, I226T); conditions: 100 μM nicotine; oocytes clamped at −70 mV
Method: as §1, §2, §3

[13] = tested on: hα6(S233C) + WT hβ2 + hβ3^V9’S nAChR; conditions: 100 μM nicotine; higher, p < 0.05
Method: as §1, §2, §3

[14] = target: hα6(N203T) + hβ4 + hβ3 nAChR (Homo sapiens, UniProt P30926+Q15825, N203T); conditions: 100 μM nicotine; oocytes clamped at −70 mV
Method: as §1, §2, §3

[15] = target: hα6(N46K) + WT hβ2 + hβ3^V9’S nAChR (Homo sapiens, UniProt P17787+Q15825, N46K); conditions: nicotine
Method: as §1, §2, §3

[16] = target: hα6(E101K) + WT hβ2 + hβ3^V9’S nAChR (Homo sapiens, UniProt P17787+Q15825, E101K); conditions: 100 μM nicotine; 3 days after cRNA injection
Method: as §1, §2, §3

Chain of hα6(S156R) + WT hβ2 + hβ3^V9’S nAChR (Q15825 26-494 S156R): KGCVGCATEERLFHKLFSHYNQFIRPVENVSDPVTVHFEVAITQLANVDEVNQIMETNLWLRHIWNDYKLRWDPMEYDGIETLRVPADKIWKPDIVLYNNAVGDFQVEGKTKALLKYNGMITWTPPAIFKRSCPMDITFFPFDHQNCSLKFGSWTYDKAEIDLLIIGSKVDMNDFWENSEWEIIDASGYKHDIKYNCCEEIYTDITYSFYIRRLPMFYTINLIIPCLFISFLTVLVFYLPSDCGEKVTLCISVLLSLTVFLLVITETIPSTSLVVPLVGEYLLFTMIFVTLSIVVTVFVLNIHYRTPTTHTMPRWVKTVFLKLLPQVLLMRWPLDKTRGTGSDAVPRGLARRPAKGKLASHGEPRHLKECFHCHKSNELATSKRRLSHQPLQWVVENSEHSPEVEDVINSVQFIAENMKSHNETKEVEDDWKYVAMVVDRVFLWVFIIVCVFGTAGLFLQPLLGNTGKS
Chain of hα6(S156R) + WT hβ2 + hβ3^V9’S nAChR (P17787 26-502): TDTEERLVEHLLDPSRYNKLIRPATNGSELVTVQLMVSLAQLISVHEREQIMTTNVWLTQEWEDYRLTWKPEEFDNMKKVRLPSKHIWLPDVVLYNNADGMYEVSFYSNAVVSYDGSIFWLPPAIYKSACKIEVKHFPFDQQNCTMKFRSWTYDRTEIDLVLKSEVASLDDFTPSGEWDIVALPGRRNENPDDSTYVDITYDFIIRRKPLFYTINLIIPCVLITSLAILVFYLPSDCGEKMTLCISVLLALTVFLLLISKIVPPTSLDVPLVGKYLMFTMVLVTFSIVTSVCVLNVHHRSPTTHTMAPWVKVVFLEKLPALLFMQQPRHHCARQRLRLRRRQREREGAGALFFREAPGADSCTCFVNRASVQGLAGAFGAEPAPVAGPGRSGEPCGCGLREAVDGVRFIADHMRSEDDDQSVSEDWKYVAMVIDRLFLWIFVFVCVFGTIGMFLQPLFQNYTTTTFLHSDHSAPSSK
Chain of hα6(S156R) + WT hβ2 + hβ3^V9’S nAChR (Q05901 25-458 V273S partner limits assumed): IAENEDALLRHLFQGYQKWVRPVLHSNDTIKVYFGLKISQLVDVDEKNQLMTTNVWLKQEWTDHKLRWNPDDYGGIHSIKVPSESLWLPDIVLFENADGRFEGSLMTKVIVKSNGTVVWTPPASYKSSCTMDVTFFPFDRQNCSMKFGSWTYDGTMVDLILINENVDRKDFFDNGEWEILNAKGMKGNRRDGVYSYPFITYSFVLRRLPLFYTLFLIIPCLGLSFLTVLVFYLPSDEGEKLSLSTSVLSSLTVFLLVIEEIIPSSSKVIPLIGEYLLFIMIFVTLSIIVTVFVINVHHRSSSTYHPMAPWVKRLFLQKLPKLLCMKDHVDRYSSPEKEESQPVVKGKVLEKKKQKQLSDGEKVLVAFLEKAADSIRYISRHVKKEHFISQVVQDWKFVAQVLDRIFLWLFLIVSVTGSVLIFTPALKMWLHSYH
Chain of hα6(S43P) + hβ4 + hβ3 nAChR (Q15825 26-494 S43P): as the sequence (Q15825 26-494 S156R) above, with S18P, R131S counted along it
Chain of hα6(S43P) + hβ4 + hβ3 nAChR (P30926 22-498): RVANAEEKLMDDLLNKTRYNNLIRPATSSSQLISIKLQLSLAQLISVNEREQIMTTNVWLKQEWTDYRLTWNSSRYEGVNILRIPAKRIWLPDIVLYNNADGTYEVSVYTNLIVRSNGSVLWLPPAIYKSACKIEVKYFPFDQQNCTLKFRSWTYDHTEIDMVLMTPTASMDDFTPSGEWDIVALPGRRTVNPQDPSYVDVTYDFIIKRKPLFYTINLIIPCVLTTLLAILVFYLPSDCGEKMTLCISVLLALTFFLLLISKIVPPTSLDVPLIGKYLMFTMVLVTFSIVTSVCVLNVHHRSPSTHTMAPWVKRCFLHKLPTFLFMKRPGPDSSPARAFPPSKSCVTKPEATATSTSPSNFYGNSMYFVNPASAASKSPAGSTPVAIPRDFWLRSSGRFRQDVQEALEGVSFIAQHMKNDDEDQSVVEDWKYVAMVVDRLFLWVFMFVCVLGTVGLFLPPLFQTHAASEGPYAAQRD
Chain of hα6(S43P) + hβ4 + hβ3 nAChR (Q05901 25-458 partner limits assumed): as the sequence (Q05901 25-458 V273S partner limits assumed) above, with S249V counted along it
Chain of hα6(S43P) + hβ4 nAChR (Q15825 26-494 S43P): as the sequence (Q15825 26-494 S156R) above, with S18P, R131S counted along it
Chain of hα6(S43P) + hβ4 nAChR (P30926 22-498): as the sequence (P30926 22-498) above
Chain of hα6(N46K) + hβ4 nAChR (Q15825 26-494 N46K): as the sequence (Q15825 26-494 S156R) above, with N21K, R131S counted along it
Chain of hα6(N46K) + hβ4 nAChR (P30926 22-498): as the sequence (P30926 22-498) above

SMILES: CN1CCC[C@H]1c1cccnc1 [nicotine, L-nicotine]
- peak current response [1]: 15-30 nA
- peak current response [2]: 15-30 nA
- peak current (Imax, mean ± SE) [3]: 1582 ± 221 nA
- peak current (Imax, mean ± SE) [4]: 1075 ± 175 nA
- current response [5]: did not elicit current responses
- peak current (Imax, mean ± SE) (hα6(S43P) + hβ4 nAChR): 39 ± 5 nA
- Mean (±SE) peak current response [6]: 208 ± 22 nA
- peak current response relative to hα6hβ2hβ3^V9’S-nAChRs [7]: 2-5 fold
- current response [8]: did not yield current responses
- current response [9]: did not yield current responses
- peak current (Imax, mean ± SE) (hα6(N46K) + hβ4 nAChR): 78 ± 11 nA
- peak current (Imax, mean ± SE) [10]: 2076 ± 68 nA
- peak current (Imax, mean ± SE) [11]: 293 ± 24 nA
- peak current (Imax, mean ± SE) [12]: 753 ± 137 nA
- peak current response relative to hα6hβ2hβ3^V9’S-nAChRs [13]: 2-5 fold
- Mean (±SE) peak current response [14]: 371 ± 68 nA
- current response [15]: did not yield current responses
- peak current response [16]: 15-30 nA
